Assay [1] concerns the target D(1A) dopamine receptor (Rattus norvegicus, UniProt P18901). The assay can be described thus: biochemical.
Description: In vitro binding affinity against Dopamine receptor D1 in rat striatal tissue
Assay [2] deals with Serotonin 2 (5-HT2) receptor (Rattus norvegicus, UniProt P30994+P08909+P14842).
Description: In vitro binding affinity against rat 5-hydroxytryptamine 2 receptor.
The target in assay [3] is Muscarinic acetylcholine receptor.
Description: In vitro binding affinity against Muscarinic acetylcholine receptors in rat brain.
Assay [4] is filed under the species Rattus norvegicus. The assay can be described thus: animal or person. Particulars: sc, read-out: Inhibition.
The species named for assay [5] is Rattus norvegicus. The assay can be described thus: animal or person. Particulars: sc, read-out: Inhibition. The source holds these as a separate data set.
Assay [6] concerns Rattus norvegicus. The experiment in a line: In vivo inhibition of apomorphine-mediated stereotypy in rats administered subcutaneously at 20 mg/kg expressed as ED50 (mg/kg). The class given is functional. Particulars: sc, route subcutaneous.
For assay [7], the species on record is Rattus norvegicus. The assay can be described thus: animal or person. Particulars: sc.
Assay [8] concerns Rattus norvegicus. The assay can be described thus: In vivo inhibition of apomorphine-mediated stereotypy in rats administered subcutaneously at 20 mg/kg expressed as percent inhibition. It is filed as functional. Particulars: sc, route subcutaneous.
Assay [9] concerns Rattus norvegicus. The assay can be described thus: In vivo inhibition of apomorphine-mediated stereotypy in rats administered subcutaneously at 20 mg/kg expressed as ED50 (mg/kg); Inactive. The class given is functional, organism-based. More on the design: dose 20 mg/kg.
Assay [10] concerns Rattus norvegicus. The assay can be described thus: In vivo inhibition of apomorphine-mediated stereotypy in rats administered subcutaneously at 20 mg/kg expressed as ED50 (mg/kg); Onactive. The class given is functional, organism-based. More on the design: dose 20 mg/kg.
For assay [11], the system named is Rattus norvegicus. The assay can be described thus: In vivo inhibition of apomorphine-mediated stereotypy in rats administered subcutaneously at 10 mg/kg expressed as percent inhibition. The class given is functional. Particulars: sc, route subcutaneous.

The values that follow come from ChEMBL document CHEMBL1126743, “New pyridobenzodiazepine derivatives as potential antipsychotics: synthesis and neurochemical study” (J Med Chem, 1993).

The structures appear in SMILES notation. The source made the active and inactive calls. No cut-off for these calls is given here.

Chain of D(1A) dopamine receptor (P18901 whole entry): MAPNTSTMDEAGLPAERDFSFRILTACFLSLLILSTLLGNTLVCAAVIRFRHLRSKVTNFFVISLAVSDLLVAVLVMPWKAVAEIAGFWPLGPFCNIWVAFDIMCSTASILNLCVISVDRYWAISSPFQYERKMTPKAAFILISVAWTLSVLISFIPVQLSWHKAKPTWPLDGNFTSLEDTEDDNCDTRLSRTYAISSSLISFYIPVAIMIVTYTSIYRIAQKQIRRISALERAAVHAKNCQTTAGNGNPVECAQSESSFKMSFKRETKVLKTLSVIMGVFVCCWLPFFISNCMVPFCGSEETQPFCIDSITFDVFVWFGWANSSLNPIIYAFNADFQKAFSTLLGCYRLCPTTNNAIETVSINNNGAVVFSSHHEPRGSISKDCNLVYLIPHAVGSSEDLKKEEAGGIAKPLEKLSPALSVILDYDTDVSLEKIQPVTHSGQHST

For orientation: Ki means the dissociation constant of the complex between target and ligand, obtained from inhibition or displacement. As to `CN1CCN(C2=Nc3ccccc3Nc3ccncc32)CC1`, the figures for the inhibitory constant (Ki) in [1], in [2] and in [3] were 302 nM, 29 nM and 3260 nM, respectively. Moreover, in assay [4], the inhibition in vivo at 20 mg/kg was 45%.

On to `CN1CCN(C2=Nc3ccccc3N(C=O)c3ccncc32)CC1`, for which the Ki in assay [1] came out at 3020 nM; in assay [2], 2053 nM; in [3] it was 3450 nM. The inhibition in vivo at 20 mg/kg in assay [4] came to 0%.

`CN1CCN(C2=Nc3cc(F)ccc3Cc3ccccc32)CC1` [FLUPERLAPINE]: the inhibition constant Ki in [1] came out at 141 nM; in assay [2], 3.8 nM; in assay [3] it was 25 nM.

`Cc1cnc2c(c1)N=C(N1CCN(C)CC1)c1ccccc1N2`: the inhibition constant (Ki) in assay [1] worked out at 1140 nM; in [2], 103 nM; in [3], 523 nM.

Usually ED50 stands for the dose that gives a 50% effect, or the effect in half of the subjects. Turning to `O=C(CCCN1CCC(O)(c2ccc(Cl)cc2)CC1)c1ccc(F)cc1` [HALOPERIDOL], the inhibition in vivo at 0.6 mg/kg in [5] was found to be 100%. This molecule came in with an ED50 in [6] of 0.14 mg/kg.

Turning to `Cc1ccc2c(c1)C(N1CCN(C)CC1)=Nc1cccnc1N2`, the Ki in assay [1] came out at 398 nM; in [2], 94 nM; in assay [3] it was 48 nM. The inhibition in vivo at 20 mg/kg in assay [4] amounted to 75%.

As for `CN1CCN(C2=Nc3ccccc3Sc3ccc(Cl)cc32)CC1` [CLOTHIAPINE], the values for the inhibition constant (Ki) in [1], in [2] and in assay [3] were 14 nM, 0.6 nM and 136 nM, respectively. Also, in [7], the median effective dose (ED50) is 0.72 mg/kg. For the same molecule, in assay [4], the inhibition in vivo at 20 mg/kg was 100%.

Take `CN1CCN(C2=Nc3cccnc3Nc3cc(Cl)ccc32)CC1`: the values for the Ki in assay [1], in assay [2] and in [3] were 214 nM, 48 nM and 366 nM, respectively. The inhibition in vivo at 20 mg/kg in assay [4] came out at 70%.

In assay [8], `CN1CCN(C2=Nc3cccnc3Nc3ccc(F)cc32)CC1` displayed an inhibition in vivo at 20 mg/kg of 55%. Further, the Ki in assay [1] stood at 677 nM; in [2] it was 124 nM; in [3] it was 415 nM.

Turning to `CN1CCN(C2=Nc3cc(Cl)ccc3Nc3ccccc32)CC1` [CLOZAPINE], the ED50 result in assay [9] is “inactive”. Also, in assay [4], the inhibition in vivo at 20 mg/kg stood at 0%.

Regarding `CN1CCN(C2=Nc3cccnc3N(C=O)c3ccccc32)CC1`, the inhibition constant (Ki) in assay [1] was found to be 47900 nM; in assay [2], 1870 nM; in assay [3], 311 nM. Further, the inhibition in vivo at 20 mg/kg in assay [4] was determined as 0%.

Take `CN1CCN(C2=Nc3cnccc3Nc3ccccc32)CC1`: the results for the Ki in assay [1], in assay [2] and in assay [3] were 13500 nM, 837 nM and 430 nM, respectively.

As for `CN1CCN(C2=Nc3ccccc3Nc3ccc(Cl)cc32)CC1` [ISOCLOZAPINE], the figures for the Ki in assay [1] and in assay [3] were 28 nM and 21 nM, respectively. The same molecule displayed an ED50 in [7] of 1.7 mg/kg.

On to `CN1CCN(C2=Nc3cccnc3Nc3ccccc32)CC1`, for which the Ki amounted to 2400 nM in assay [1], 124 nM in assay [2] and 665 nM in assay [3]. In addition, the inhibition in vivo at 20 mg/kg in assay [4] amounted to 0%.

For the molecule `CN1CCN(C2=Nc3ccccc3N(C=O)c3ncccc32)CC1`, the values for the Ki in [1], in assay [2] and in assay [3] were 30200 nM, 7120 nM and 3415 nM, respectively. In addition, the inhibition in vivo at 20 mg/kg in [4] was found to be 0%.

Consider `CN1CCN(C2=Nc3cccnc3N(C)c3ccccc32)CC1`, for which the results for the Ki in assay [1], in [2] and in [3] were 6020 nM, 2900 nM and 175 nM, respectively. In [4], the inhibition in vivo at 20 mg/kg worked out at 0%.

In the case of `CN1CCN(C2=Nc3cc(Cl)ccc3Sc3ccccc32)CC1` [ISOCLOTHIAPINE], the inhibition constant Ki in [1] was determined as 240 nM; in assay [2], 4.1 nM; in assay [3] it was 5.6 nM. Further, the ED50 entry in assay [10] is “inactive”.

Turning to `CN1CCN(C2=Nc3ccccc3Nc3ncccc32)CC1`, the inhibitory constant (Ki) in [1] was determined as 726 nM; in assay [2] it was 103 nM; in assay [3], 303 nM. In addition, the inhibition in vivo at 20 mg/kg in [4] is 0%.

In assay [11], `CN1CCN(C2=Nc3cccnc3Nc3ccc(Cl)cc32)CC1` came in with an inhibition in vivo at 10 mg/kg of 75%. Also, the inhibitory constant (Ki) in assay [1] amounted to 2140 nM; in [2], 6.2 nM; in [3], 65 nM.
